≈ marks a conversion by molar mass, not a printed value. Where two headings read alike, the source gives them in different places. Marks after values point to notes of the source that are not given here.
Legend:
[1] = DPPH• scavenging kinetics by UV-vis, pseudo-first-order conditions; details: for second-order rate constant k2 for the reaction with DPPH•: ethanol, 298 K, deaerated, DPPH• 2.2 × 10^−4 M, surfactant 0.012-0.12 M; for k2 higher in comparison with the CnPDA homolog: reaction with DPPH•
Protocol: After confirming that the absorption maximum at 517 nm of DPPH• is outside the surfactant’s absorption range, the rate of the DPPH•-scavenging reaction of the N-oxides was measured by monitoring the decrease in absorbance of this maximum. To ensure that the decay of DPPH• obeyed pseudo-first-order kinetics, the concentration of surfactants was at least a 54-fold excess of the DPPH• concentration. As explained in SI, the calculated pseudo-first-order rate constants, kobs, increased linearly with the concentration of Cn(DAPANO)2 and CnPDA (shown in SI). The second-order rate constants k2 for the reaction between the N-oxides and DPPH• were determined from the slopes of the linear plots of kobs vs. the concentration of the surfactants and are given in Figure 6.
The measurements were done under deaerated conditions at 298 K in ethanol solutions (2 mL in a 10 mm quartz cuvette) containing DPPH^• (C = 2.2 × 10^−4 M) and a surfactant at each of five different concentrations, namely C1 = 0.12 M, C2 = 0.09 M, C3 = 0.06 M, C4 = 0.03 M, and C5 = 0.012 M. UV−vis spectral changes associated with the undergoing reaction were monitored at 516 nm, using a Varian Cary 50Conc UV−visible Spectrophotometer. The following equations of the calibration curve were used to calculate DPPH^• concentrations in the reaction system: Abs = 4.0189 × C[mM] + 0.00813 (R^2 = 0.9998). The rate of DPPH^• scavenging reaction was determined using pseudo-first-order kinetics (the concentration of CnPDA or Cn(DAPANO)2 was maintained at more than 54-fold excess of the radical concentration); further details are given as Supporting Information.

[2] = Hydrodynamic radius of micelles by dynamic light scattering (DLS); format: physicochemical; details: 298 K, surfactant at 100 x CMC
Protocol: The hydrodynamic diameter for CnPDA was determined by the DLS method. The measurements were performed using a Nano Series Zetasizer from Malvern Instruments (UK) with a detection angle of 173°, equipped with a He−Ne laser (632.8 nm) and an ALV 5000 multibit multitau autocorrelator. Before the measurements, the samples were filtered through a filter (with a pore size of 0.2 μm) directly into the optical cell to remove any impurities. All of the DLS measurements were performed at 298 ± 0.1 K and at a surfactant concentration a hundred times higher than the critical micelle concentration (CMC). Each value was obtained as the average of three runs with at least 10 measurements. The DTS software (Nano) was used to evaluate the data.

[3] = MTT cell viability assay, HaCaT; format: cell-based, human; details: human, HaCaT cells (immortalized human keratinocytes), evaluated for CMC
Protocol: (§1) HaCaT (immortalized human keratinocytes from histologically normal skin) cell line was obtained from the CLS Cell Lines Service GmbH (Eppelheim, Germany). HGFs (human gingival fibroblasts) derive from primary cell culture. The cells were isolated according to the procedure described by Saczko et al. and patented by Saczko et al.. Cells were grown in plastic cell culture flasks in Dulbecco’s Modified Eagle’s Medium, supplemented with fetal bovine serum (FBS, Lonza, Morrisville, NC, USA), with 100 IU/mL penicillin, 50 mg streptomycin, and 125 μg amphotericin B (Sigma). The cells were maintained in a humidified atmosphere at 37 °C and 5% CO2. The cells were regularly maintained by systematic passaging. For experimental purposes, the cells were removed by trypsinization (0.25% Trypsin-EDTA, Sigma).
(§2) MTT (Sigma) test was used to determine the viability of HaCaT and HGFs cells. The MTT assay was used to test mitochondrial metabolic functioning. Cells were seeded on flat bottom 96-well tissue culture plates at a density of 10^4 cells/well and allowed to grow in a CO2 incubator at 37 °C overnight. In the case of these studies, the culture medium was removed, surfactant solutions were added, and the cells were exposed for 24 and 48 h to compounds at doses ranging from 50 to 2000 μg/mL. After incubation, MTT assay was applied according to the manufacturer protocol. The absorbance was measured at 570 nm using a multiwell plate reader (EnSpire Multimode Reader, Perkin Elmer). Each experiment was performed in a few independent repetitions. Mean values and standard deviations of all results were calculated. The final results were expressed as the percentage of mitochondrial function relative to untreated control cells.

[4] = test system: normal human keratinocytes (HaCaT); assay: MTT cell viability assay, HaCaT; format: cell-based; details: Homo sapiens, HaCaT, MTT
Protocol: as §1, §2

[5] = test system: primary fibroblasts (HGFs); assay: MTT cell viability assay, HGFs; format: cell-based, human; details: Homo sapiens, Fibroblast, MTT
Protocol: as §1, §2

[6] = MTT cell viability assay, HGFs; format: cell-based, human; details: human, primary human gingival fibroblasts (HGFs), evaluated for CMC; for viability at 24 h: read-out: Viability 24 h HGF’s; for viability at 48 h: read-out: Viability 48 h HGF’s
Protocol: as §1, §2

[7] = design: method as in PMID 23098238; details: cited from earlier work
[8] = test system: human keratinocytes; assay: ROS evaluation (DCF assay), human keratinocytes; format: cell-based; details: after ROS induction by DHTTP; surfactant in CMC concentration
Protocol: (§3) Antioxidative properties of the tested surfactant were evaluated. To induce ROS production, a DPPH solution was prepared (C = 2.55 × 10^−3 mol/dm3). Normal fibroblasts and keratinocytes were seeded on flat bottom 96-well tissue culture plates at a density of 10^4 cells/well and allowed to grow in a CO2 incubator at 37°C overnight. Then, culture medium was removed and 200 µL of DPPH solution in DMEM was added to the plate and left for 1 h in a CO2 incubator at 37 °C. After incubation, DPPH solution was removed and ROS production was determined using DCF assay (Life Technologies, Warsaw, Poland). The DCF assay was conducted with 6-carboxy-2′,7′-dichlorodihydrofluorescein diacetate 2′,7′-dichlorofluorescein (carboxy-H2DCFDA). After deacetylation of H2DCFDA to H2DCF or carboxy-H2DCFDA to carboxy-H2DCF, cellular ROS oxidize H2DCF and carboxy-H2DCF to 2′,7′-dichlorofluorescein (DCF) and 2′,7′-carboxydichlorofluorescein (carboxy-DCF), respectively. The carboxy-H2DCFDA was dissolved in sterile DMSO to generate a stock solution of 50 µg/mL. For experiments, the stock solution of carboxy-H2DCFDA was brought to room temperature in the dark and then diluted in a cell culture medium without FBS. After washout of the incubation medium from cells with PBS, the reagent was added to cell culture to a final concentration of 10 µM and for 30 min was incubated at 37 °C in darkness. After incubation, excitation wavelength of 495 nm and emission wavelength of 530 nm were used by a multiwell scanning spectrophotometer (EnSpire Perkin Elmer, Krakow, Poland). In the next stage, surfactant solutions in CMC concentrations were added into cells after 1 h incubation with DHTTP solution. Cells were incubated, and ROS were detected 30 min by a multiwell scanning spectrophotometer (EnSpire Perkin Elmer, Poland).

[9] = test system: primary fibroblasts; assay: ROS evaluation (DCF assay), primary fibroblasts; format: cell-based, human; details: after ROS induction by DHTTP; surfactant in CMC concentration
Protocol: as §3

[10] = design: method as in PMID 23098238; details: cited from earlier work; remark: listed apart in the source
[11] = 24 h incubation, read-out: IC50 HaCaT 24 h
[12] = 48 h incubation, read-out: IC50 HaCaT 48 h
[13] = 24 h incubation, read-out: IC50 HGFs 24 h
[14] = 48 h incubation, read-out: IC50 HGFs 48 h

In the case of CCCCCCCCCC(=O)NCCC[N+](C)(C)[O-] [C10PDA], the “second-order rate constant k2 for the reaction with DPPH•” value (“second-order rate constant k2” below) [1] is reported as 0.000853 M⁻¹ s⁻¹, the “RH DLS” value [2] is reported as 1.67 nm and the viability at 24 h [3] is reported as 34.7%. It also gave a viability at 48 h [3] of 84.8%, an IC50 [4, 11] of 43.8 µg/mL (≈ 161 µM) and an IC50 [4, 12] of 41.5 µg/mL (≈ 152 µM). For the same compound, the IC50 [5, 13] was 77.9 µg/mL (≈ 286 µM), the IC50 [5, 14] was 38.7 µg/mL (≈ 142 µM) and the viability at 24 h [6] was 98.6%. For the same compound, the viability at 48 h [6] was 20.2%.
In the case of CCCCCCCCCCCCCC(=O)N(CCC[N+](C)(C)[O-])CCC[N+](C)(C)[O-] [C14(DAPANO)2], the “second-order rate constant k2” value [1] is given as 0.00117 M⁻¹ s⁻¹, the “k2 higher in comparison with the CnPDA homolog” value [1] is given as 16% and the “RH DLS” value [7] is given as 2.28 ^a nm. For the same compound, the “radical (ROS) level, DCF fluorescence” value [8] was “not significant decrease in radical level”, the viability at 24 h [3] was 11.3% and the viability at 48 h [3] was 4.5%. The IC50 [4, 11] was 32 µg/mL (≈ 74.5 µM), the IC50 [4, 12] was 17 µg/mL (≈ 39.6 µM) and the “radical (ROS) level, DCF fluorescence” value [9] was “not significant decrease in radical level”. It also gave an IC50 [5, 13] of 68.5 µg/mL (≈ 159 µM), an IC50 [5, 14] of 0.89 µg/mL (≈ 2.07 µM) and a viability at 24 h [6] of 17.7%. The viability at 48 h [6] was 11.5% and the CMC [10] was 8.0·10^−4 a M.
In the case of CCCCCCCCCC(=O)N(CCC[N+](C)(C)[O-])CCC[N+](C)(C)[O-] [C10(DAPANO)2], the “second-order rate constant k2” value [1] is given as 0.000947 M⁻¹ s⁻¹, the “k2 higher in comparison with the CnPDA homolog” value [1] is given as 11% and the “RH DLS” value [7] is given as 1.75 ^a nm. It also gave a viability at 24 h [3] of 8.1%, a viability at 48 h [3] of 18.2% and an IC50 [4, 11] of 98 µg/mL (≈ 262 µM). For the same compound, the IC50 [4, 12] was 97 µg/mL (≈ 260 µM), the IC50 [5, 13] was 34.5 µg/mL (≈ 92.3 µM) and the IC50 [5, 14] was 1.9 µg/mL (≈ 5.09 µM). The viability at 24 h [6] was 16.2%, the viability at 48 h [6] was 9.7% and the CMC [10] was 3.0·10^−2 a M.
For CCCCCCCCCCCCCC(=O)NCCC[N+](C)(C)[O-] [C14PDA], the “second-order rate constant k2” value [1] was 0.00101 M⁻¹ s⁻¹, the “radical (ROS) level, DCF fluorescence” value [8] was “most significant decrease of fluorescence level” and the “RH DLS” value [2] was 2.19 nm. It also gave a viability at 24 h [3] of 81.1%, a viability at 48 h [3] of 119% and an IC50 [4, 11] of 48.1 µg/mL (≈ 146 µM). The IC50 [4, 12] was 9.9 µg/mL (≈ 30.1 µM), the “radical (ROS) level, DCF fluorescence” value [9] was “most significant decrease of fluorescence level” and the IC50 [5, 13] was 69.9 µg/mL (≈ 213 µM). It also gave an IC50 [5, 14] of 1.6 µg/mL (≈ 4.87 µM), a viability at 24 h [6] of 104% and a viability at 48 h [6] of 78.2%.
For CCCCCCCCCCCCCCCC(=O)N(CCC[N+](C)(C)[O-])CCC[N+](C)(C)[O-] [C16(DAPANO)2], the “second-order rate constant k2” value [1] is given as 0.00138 M⁻¹ s⁻¹, the “k2 higher in comparison with the CnPDA homolog” value [1] is given as 10% and the “RH DLS” value [7] is given as 2.38 ^a nm. For the same compound, the “radical (ROS) level, DCF fluorescence” value [8] was “not significant decrease in radical level”, the viability at 24 h [3] was 14.7% and the viability at 48 h [3] was 3.9%. For the same compound, the IC50 [4, 11] was 29 µg/mL (≈ 63.4 µM), the IC50 [4, 12] was 18.2 µg/mL (≈ 39.8 µM) and the “radical (ROS) level, DCF fluorescence” value [9] was “not significant decrease in radical level”. For the same compound, the IC50 [5, 13] was 14.3 µg/mL (≈ 31.2 µM), the IC50 [5, 14] was 0.76 µg/mL (≈ 1.66 µM) and the viability at 24 h [6] was 27.8%. For the same compound, the viability at 48 h [6] was 12.3% and the CMC [10] was 1.5·10^−4 a M.
For CCCCCCCCCCCCCCCC(=O)NCCC[N+](C)(C)[O-] [C16PDA], the “second-order rate constant k2” value [1] was 0.00125 M⁻¹ s⁻¹, the “RH DLS” value [2] was 2.27 nm and the viability at 24 h [3] was 140%. The viability at 48 h [3] was 123%, the IC50 [4, 11] was 48.1 µg/mL (≈ 135 µM) and the IC50 [4, 12] was 9.8 µg/mL (≈ 27.5 µM). For the same compound, the IC50 [5, 13] was 44.1 µg/mL (≈ 124 µM), the IC50 [5, 14] was 1.9 µg/mL (≈ 5.33 µM) and the viability at 24 h [6] was 96.9%. It also gave a viability at 48 h [6] of 81.7%.

Reference: publication PMC8346996, “Antiradical Properties of N-Oxide Surfactants—Two in One” (International Journal of Molecular Sciences, 2021)
